Measurements published in patent US10766869B2, “Triazoles for the treatment of demyelinating dieases” (Vertex Pharmaceuticals Incorporated, priority 2015, dated 2020).

Test system: primary rat mixed cortical cells
Experiment: In vitro myelination assay (MBP positive myelin strands, fold myelin pixels above background)
Type: cell-based
Details: Rattus norvegicus, relative to baseline of no added compound; for fold induction at 1 µM: 1.0 μM compound, read-out: Fold myelin pixels above background, 1.0 μM; for fold induction at 10 µM: 10.0 μM compound, read-out: Fold myelin pixels above background, 10.0 μM
Summary of the method: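 Fourteen-day treatment of primary P1 rat mixed cortical cultures, re-dosed at days 6 and 10, at 1.0 μM and 10.0 μM. MBP immunofluorescence was imaged at 10× and myelin strands quantified by software, normalised to untreated wells as fold above background.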

SMILES: CC(=O)N1CCC(c2cc(C)cc(Nc3ncn(-c4cc(F)cc(F)c4)n3)c2)CC1 [Compound 90, 1-[4-[3-[[1-(3,5-difluorophenyl)-1,2,4-triazol-3-yl]amino]-5-methyl-phenyl]-1-piperidyl]ethanone]
- fold induction at 1 µM: 100 to 1000
- fold induction at 10 µM: 1 to 10

SMILES: CCc1cc(Nc2ncn(-c3ccnc(C)n3)n2)cc(N2CCN(C3COC3)CC2)c1 [Compound 91, N-[3-ethyl-5-[4-(oxetan-3-yl)piperazin-1-yl]phenyl]-1-(2-methylpyrimidin-4-yl)-1,2,4-triazol-3-amine]
- fold induction at 1 µM: ≤ 1
- fold induction at 10 µM: 100 to 1000

SMILES: Cc1cc(Nc2ncn(-c3cc(F)cc(F)c3)n2)cc(N2CCNCC2=O)c1 [Compound 93, 1-[3-[[1-(3,5-difluorophenyl)-1,2,4-triazol-3-yl]amino]-5-methyl-phenyl]piperazin-2-one]
- fold induction at 1 µM: 10 to 100
- fold induction at 10 µM: 100 to 1000

SMILES: COc1cccc(-n2cnc(Nc3cc(C)cc(N4CCN(C)CC4)c3)n2)c1 [Compound 94, 1-(3-methoxyphenyl)-N-[3-methyl-5-(4-methylpiperazin-1-yl)phenyl]-1,2,4-triazol-3-amine]
- fold induction at 1 µM: 100 to 1000
- fold induction at 10 µM: 1 to 10

SMILES: Cc1cc(Nc2ncn(-c3cc(F)cc(F)c3)n2)cc(N2CCN(C3CSC3)CC2)c1 [Compound 95, 1-(3,5-difluorophenyl)-N-[3-methyl-5-[4-(thietan-3-yl)piperazin-1-yl]phenyl]-1,2,4-triazol-3-amine]
- fold induction at 1 µM: 10 to 100
- fold induction at 10 µM: ≤ 1

SMILES: CN1CCN(c2cc(Nc3ncn(-c4ccncn4)n3)cc(C(F)(F)F)c2)CC1 [Compound 96, N-[3-(4-methylpiperazin-1-yl)-5-(trifluoromethyl)phenyl]-1-pyrimidin-4-yl-1,2,4-triazol-3-amine]
- fold induction at 1 µM: 100 to 1000
- fold induction at 10 µM: 100 to 1000

SMILES: CC(C)(C)c1cc(Nc2ncn(-c3cccc(F)c3)n2)cc(N2CCN(C3COC3)CC2)c1 [Compound 97, N-[3-tert-butyl-5-[4-(oxetan-3-yl)piperazin-1-yl]phenyl]-1-(3-fluorophenyl)-1,2,4-triazol-3-amine]
- fold induction at 1 µM: 100 to 1000
- fold induction at 10 µM: 100 to 1000

SMILES: CN1CCCN(c2cc(F)cc(Nc3ncn(-c4cccc(F)c4)n3)c2)CC1 [Compound 98, N-[3-fluoro-5-(4-methyl-1,4-diazepan-1-yl)phenyl]-1-(3-fluorophenyl)-1,2,4-triazol-3-amine]
- fold induction at 1 µM: 10 to 100
- fold induction at 10 µM: ≤ 1

SMILES: Fc1cc(Nc2ncn(-c3ccc(F)c(F)c3)n2)cc(N2CCCC2)c1 [Compound 99, 1-(3,4-difluorophenyl)-N-(3-fluoro-5-pyrrolidin-1-yl-phenyl)-1,2,4-triazol-3-amine]
- fold induction at 1 µM: ≤ 1
- fold induction at 10 µM: ≤ 1

SMILES: Fc1ccc(-n2cnc(Nc3cc(Cl)nc(N4CCOCC4)c3)n2)cc1F [Compound 100, 2-chloro-N-[1-(3,4-difluorophenyl)-1,2,4-triazol-3-yl]-6-morpholino-pyridin-4-amine]
- fold induction at 1 µM: 100 to 1000
- fold induction at 10 µM: 100 to 1000

SMILES: COc1cc(Nc2ncn(-c3ccc(F)cc3)n2)cc(N2CCN(C3COC3)CC2)c1 [Compound 102, 1-(4-fluorophenyl)-N-[3-methoxy-5-[4-(oxetan-3-yl)piperazin-1-yl]phenyl]-1,2,4-triazol-3-amine]
- fold induction at 1 µM: 100 to 1000
- fold induction at 10 µM: 1 to 10

SMILES: CCC1CCCN1c1cc(F)cc(-n2cnc(Nc3cc(C)cc(N4CCN(C5COC5)CC4)c3)n2)c1 (centres unmarked) [Compound 103, 1-[3-(2-ethylpyrrolidin-1-yl)-5-fluoro-phenyl]-N-[3-methyl-5-[4-(oxetan-3-yl)piperazin-1-yl]phenyl]-1,2,4-triazol-3-amine]
- fold induction at 1 µM: 100 to 1000
- fold induction at 10 µM: ≤ 1

SMILES: Cc1cc(Nc2ncn(-c3ccccn3)n2)cc(N2CCN(C3COC3)CC2)c1 [Compound 104, N-[3-methyl-5-[4-(oxetan-3-yl)piperazin-1-yl]phenyl]-1-(2-pyridyl)-1,2,4-triazol-3-amine]
- fold induction at 1 µM: 10 to 100
- fold induction at 10 µM: 100 to 1000
